{"source": "paper PMC8800111", "about": "(The Journal of Biological Chemistry, 2021)", "type_in_all_cases": "cell-based", "key": {"[1]": {"target": "proteins of U3A human fibrosarcoma cells (4462 proteins detected) (Homo sapiens, UniProt Q9BYM8)", "sequence (Q9BYM8 whole entry)": "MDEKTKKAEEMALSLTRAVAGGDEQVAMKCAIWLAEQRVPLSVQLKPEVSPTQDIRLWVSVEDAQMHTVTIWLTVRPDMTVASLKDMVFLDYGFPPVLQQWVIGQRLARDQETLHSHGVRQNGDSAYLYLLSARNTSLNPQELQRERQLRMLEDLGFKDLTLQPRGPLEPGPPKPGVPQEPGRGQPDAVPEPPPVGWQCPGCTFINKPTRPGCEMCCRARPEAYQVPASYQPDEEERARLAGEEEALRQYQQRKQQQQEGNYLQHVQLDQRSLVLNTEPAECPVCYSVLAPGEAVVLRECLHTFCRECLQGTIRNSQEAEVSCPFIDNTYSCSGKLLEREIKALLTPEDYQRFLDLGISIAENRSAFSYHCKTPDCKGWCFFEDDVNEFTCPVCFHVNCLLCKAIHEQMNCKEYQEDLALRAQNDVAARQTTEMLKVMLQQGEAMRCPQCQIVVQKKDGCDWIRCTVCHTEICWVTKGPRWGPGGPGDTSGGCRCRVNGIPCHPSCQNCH", "details": "protein RBCK1; U3A, 10 μM, 2 h"}, "[2]": {"target": "proteins of U3A human fibrosarcoma cells (4462 proteins detected) (Homo sapiens, UniProt Q9BUL5)", "details": "protein PHF23, U3A cells"}, "[3]": {"target": "proteins of U3A human fibrosarcoma cells (4462 proteins detected) (Homo sapiens, UniProt P14854)", "sequence (P14854 whole entry)": "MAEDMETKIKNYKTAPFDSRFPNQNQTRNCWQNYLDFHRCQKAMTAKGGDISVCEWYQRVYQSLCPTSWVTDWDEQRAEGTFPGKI", "details": "protein COX6B1, U3A cells"}, "[4]": {"target": "proteins of U3A human fibrosarcoma cells (4462 proteins detected) (Homo sapiens, UniProt P61289)", "details": "protein PSME3; U3A cells"}, "[5]": {"target": "proteins of U3A human fibrosarcoma cells (4462 proteins detected) (Homo sapiens, UniProt Q13131)", "sequence (Q13131 whole entry)": "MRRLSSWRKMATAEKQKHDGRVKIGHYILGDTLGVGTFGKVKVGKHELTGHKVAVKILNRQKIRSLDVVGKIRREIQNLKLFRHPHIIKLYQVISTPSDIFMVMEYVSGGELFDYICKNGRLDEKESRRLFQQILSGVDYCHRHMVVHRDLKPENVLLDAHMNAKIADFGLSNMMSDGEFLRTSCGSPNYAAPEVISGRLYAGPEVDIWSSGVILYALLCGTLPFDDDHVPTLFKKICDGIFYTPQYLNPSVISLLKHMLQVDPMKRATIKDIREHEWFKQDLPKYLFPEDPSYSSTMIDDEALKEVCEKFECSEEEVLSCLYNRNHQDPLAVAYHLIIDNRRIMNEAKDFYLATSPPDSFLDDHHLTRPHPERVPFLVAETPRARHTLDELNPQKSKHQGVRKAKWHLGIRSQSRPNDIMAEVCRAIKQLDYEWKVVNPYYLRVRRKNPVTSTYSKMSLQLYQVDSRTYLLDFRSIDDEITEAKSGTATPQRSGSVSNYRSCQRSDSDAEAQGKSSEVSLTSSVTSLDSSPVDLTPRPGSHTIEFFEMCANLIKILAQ", "details": "protein PRKAA1; U3A cells"}, "[6]": {"target": "proteins of U3A human fibrosarcoma cells (4462 proteins detected) (Homo sapiens, UniProt Q13492)", "details": "protein PICALM; U3A cells"}, "[7]": {"target": "proteins of U3A human fibrosarcoma cells (4462 proteins detected) (Homo sapiens, UniProt Q8N465)", "sequence (Q8N465 14-521)": "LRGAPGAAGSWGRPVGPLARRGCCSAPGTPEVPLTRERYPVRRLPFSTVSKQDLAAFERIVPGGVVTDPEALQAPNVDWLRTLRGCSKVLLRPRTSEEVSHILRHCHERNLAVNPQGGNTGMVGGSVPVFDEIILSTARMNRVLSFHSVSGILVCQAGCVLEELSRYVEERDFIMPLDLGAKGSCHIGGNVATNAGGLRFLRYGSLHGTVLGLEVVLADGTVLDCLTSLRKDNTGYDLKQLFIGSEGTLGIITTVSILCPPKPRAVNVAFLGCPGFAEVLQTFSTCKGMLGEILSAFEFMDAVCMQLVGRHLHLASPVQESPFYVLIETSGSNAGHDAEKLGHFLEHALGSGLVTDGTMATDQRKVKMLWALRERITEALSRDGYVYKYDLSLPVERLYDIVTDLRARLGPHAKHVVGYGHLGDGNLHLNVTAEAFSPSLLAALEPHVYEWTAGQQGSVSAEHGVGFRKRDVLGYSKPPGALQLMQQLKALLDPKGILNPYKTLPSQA", "details": "protein D2HGDH; soluble abundance after heat, U3A cells"}, "[8]": {"target": "proteins of U3A human fibrosarcoma cells (4462 proteins detected) (Homo sapiens, UniProt P49840)", "details": "protein GSK3A; U3A cells"}, "[9]": {"target": "proteins of U3A human fibrosarcoma cells (4462 proteins detected) (Homo sapiens, UniProt P41214)", "details": "protein EIF2D; U3A cells"}, "[10]": {"target": "proteins of U3A human fibrosarcoma cells (4462 proteins detected) (Homo sapiens, UniProt Q96FZ2)", "details": "protein HMCES, U3A cells"}, "[11]": {"target": "proteins of U3A human fibrosarcoma cells (4462 proteins detected) (Homo sapiens, UniProt Q8NI22)", "details": "protein MCFD2, U3A cells"}, "[12]": {"target": "proteins of U3A human fibrosarcoma cells (4462 proteins detected) (Homo sapiens, UniProt Q9NXV2)", "details": "protein KCTD5, U3A cells"}, "[13]": {"target": "proteins of U3A human fibrosarcoma cells (4462 proteins detected) (Homo sapiens, UniProt Q6KC79)", "details": "protein NIPBL; U3A cells"}, "[14]": {"target": "proteins of U3A human fibrosarcoma cells (4462 proteins detected) (Homo sapiens, UniProt Q6PD74)", "details": "protein AAGAB; U3A cells"}, "[15]": {"target": "proteins of U3A human fibrosarcoma cells (4462 proteins detected) (Homo sapiens, UniProt Q8TBZ3)", "details": "protein WDR20, U3A cells"}, "[16]": {"target": "proteins of U3A human fibrosarcoma cells (4462 proteins detected) (Homo sapiens, UniProt Q5JSH3)", "sequence (Q5JSH3 whole entry)": "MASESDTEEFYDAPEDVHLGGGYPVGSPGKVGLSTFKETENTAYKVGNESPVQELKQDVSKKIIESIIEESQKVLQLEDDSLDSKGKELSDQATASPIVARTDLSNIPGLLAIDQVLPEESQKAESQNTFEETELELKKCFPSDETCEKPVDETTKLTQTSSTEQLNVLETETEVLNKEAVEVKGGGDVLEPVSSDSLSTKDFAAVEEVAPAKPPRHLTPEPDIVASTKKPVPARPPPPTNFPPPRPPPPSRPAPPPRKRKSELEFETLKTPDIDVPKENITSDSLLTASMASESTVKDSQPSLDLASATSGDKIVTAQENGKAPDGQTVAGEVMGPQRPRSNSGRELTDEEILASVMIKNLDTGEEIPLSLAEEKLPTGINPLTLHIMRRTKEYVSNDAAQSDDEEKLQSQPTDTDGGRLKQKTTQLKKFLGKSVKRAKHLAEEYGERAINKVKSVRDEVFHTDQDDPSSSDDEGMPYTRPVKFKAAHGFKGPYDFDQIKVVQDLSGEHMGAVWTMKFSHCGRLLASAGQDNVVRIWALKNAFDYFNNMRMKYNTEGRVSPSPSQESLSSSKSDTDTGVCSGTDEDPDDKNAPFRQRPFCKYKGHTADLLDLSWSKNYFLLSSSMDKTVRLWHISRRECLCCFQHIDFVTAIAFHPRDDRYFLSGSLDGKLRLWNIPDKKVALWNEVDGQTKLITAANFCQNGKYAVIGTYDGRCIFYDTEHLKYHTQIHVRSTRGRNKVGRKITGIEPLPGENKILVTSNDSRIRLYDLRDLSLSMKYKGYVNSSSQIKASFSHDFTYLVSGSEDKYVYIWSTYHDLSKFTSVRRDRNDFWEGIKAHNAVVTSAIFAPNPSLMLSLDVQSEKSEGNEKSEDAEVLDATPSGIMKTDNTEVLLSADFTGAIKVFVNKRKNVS", "details": "protein WDR44, U3A cells"}, "[17]": {"target": "proteins of U3A human fibrosarcoma cells (4462 proteins detected) (Homo sapiens, UniProt P54802)", "details": "protein NAGLU, U3A cells"}, "[18]": {"target": "proteins of U3A human fibrosarcoma cells (4462 proteins detected) (Homo sapiens, UniProt P30050)", "details": "protein RPL12; soluble abundance after heat, U3A cells"}, "[19]": {"target": "proteins of U3A human fibrosarcoma cells (4462 proteins detected) (Homo sapiens, UniProt O75151)", "sequence (O75151 whole entry)": "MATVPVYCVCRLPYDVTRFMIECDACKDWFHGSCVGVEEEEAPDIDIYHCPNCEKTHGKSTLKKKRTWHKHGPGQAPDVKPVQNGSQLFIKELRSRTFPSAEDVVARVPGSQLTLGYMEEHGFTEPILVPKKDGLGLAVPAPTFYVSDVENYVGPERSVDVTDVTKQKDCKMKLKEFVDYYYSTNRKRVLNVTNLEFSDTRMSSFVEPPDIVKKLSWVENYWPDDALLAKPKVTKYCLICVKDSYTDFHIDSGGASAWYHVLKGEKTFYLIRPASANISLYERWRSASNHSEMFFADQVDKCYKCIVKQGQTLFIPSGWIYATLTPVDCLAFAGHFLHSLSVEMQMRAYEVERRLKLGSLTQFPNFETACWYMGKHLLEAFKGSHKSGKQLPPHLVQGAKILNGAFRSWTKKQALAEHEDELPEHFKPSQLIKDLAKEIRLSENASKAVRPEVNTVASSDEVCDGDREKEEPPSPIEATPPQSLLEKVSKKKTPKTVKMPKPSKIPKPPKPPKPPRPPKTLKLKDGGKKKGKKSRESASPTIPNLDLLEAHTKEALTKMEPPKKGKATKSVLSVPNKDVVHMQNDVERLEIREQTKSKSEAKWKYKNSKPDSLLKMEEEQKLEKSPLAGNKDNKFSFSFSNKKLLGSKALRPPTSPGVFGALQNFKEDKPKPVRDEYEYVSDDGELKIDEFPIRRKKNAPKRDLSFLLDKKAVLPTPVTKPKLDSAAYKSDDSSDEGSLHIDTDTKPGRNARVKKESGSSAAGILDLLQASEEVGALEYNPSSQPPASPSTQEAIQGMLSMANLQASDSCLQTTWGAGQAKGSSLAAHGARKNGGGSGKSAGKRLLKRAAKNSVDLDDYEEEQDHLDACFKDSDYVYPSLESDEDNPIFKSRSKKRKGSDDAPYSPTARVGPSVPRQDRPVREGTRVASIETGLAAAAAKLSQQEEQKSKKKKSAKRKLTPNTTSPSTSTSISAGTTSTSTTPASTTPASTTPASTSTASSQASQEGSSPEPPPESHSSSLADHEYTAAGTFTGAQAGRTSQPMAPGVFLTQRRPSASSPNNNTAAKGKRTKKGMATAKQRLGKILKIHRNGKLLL", "details": "protein PHF2; soluble abundance after heat, U3A cells"}, "[20]": {"target": "proteins of U3A human fibrosarcoma cells (4462 proteins detected) (Homo sapiens, UniProt Q9Y237)", "sequence (Q9Y237 whole entry)": "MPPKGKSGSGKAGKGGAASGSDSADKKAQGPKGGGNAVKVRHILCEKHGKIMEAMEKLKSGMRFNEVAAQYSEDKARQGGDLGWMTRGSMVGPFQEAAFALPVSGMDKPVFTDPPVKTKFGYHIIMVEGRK", "details": "protein PIN4, U3A cells"}, "[21]": {"target": "proteins of U3A human fibrosarcoma cells (4462 proteins detected) (Homo sapiens, UniProt O15294)", "details": "protein OGT; U3A cells"}, "[22]": {"target": "proteins of U3A human fibrosarcoma cells (4462 proteins detected) (Homo sapiens, UniProt Q7Z6B0)", "details": "protein CCDC91, U3A cells"}, "[23]": {"target": "proteins of U3A human fibrosarcoma cells (4462 proteins detected) (Homo sapiens, UniProt Q9H5Q4)", "details": "protein TFB2M; U3A cells"}, "[24]": {"target": "proteins of U3A human fibrosarcoma cells (4462 proteins detected) (Homo sapiens, UniProt Q09161)", "details": "protein NCBP1; soluble abundance after heat, U3A cells"}, "[25]": {"target": "proteins of U3A human fibrosarcoma cells (4462 proteins detected) (Homo sapiens, UniProt O60563)", "details": "protein CCNT1; U3A cells"}, "[26]": {"target": "proteins of U3A human fibrosarcoma cells (4462 proteins detected) (Homo sapiens, UniProt Q96SB8)", "details": "protein SMC6; U3A cells"}, "[27]": {"target": "proteins of U3A human fibrosarcoma cells (4462 proteins detected) (Homo sapiens, UniProt P38432)", "details": "protein COIL; soluble abundance after heat, U3A cells"}, "[28]": {"target": "proteins of U3A human fibrosarcoma cells (4462 proteins detected) (Homo sapiens, UniProt Q14974)", "details": "protein KPNB1; soluble abundance after heat, U3A cells"}, "[29]": {"target": "proteins of U3A human fibrosarcoma cells (4462 proteins detected) (Homo sapiens, UniProt P27816)", "sequence (P27816 whole entry)": "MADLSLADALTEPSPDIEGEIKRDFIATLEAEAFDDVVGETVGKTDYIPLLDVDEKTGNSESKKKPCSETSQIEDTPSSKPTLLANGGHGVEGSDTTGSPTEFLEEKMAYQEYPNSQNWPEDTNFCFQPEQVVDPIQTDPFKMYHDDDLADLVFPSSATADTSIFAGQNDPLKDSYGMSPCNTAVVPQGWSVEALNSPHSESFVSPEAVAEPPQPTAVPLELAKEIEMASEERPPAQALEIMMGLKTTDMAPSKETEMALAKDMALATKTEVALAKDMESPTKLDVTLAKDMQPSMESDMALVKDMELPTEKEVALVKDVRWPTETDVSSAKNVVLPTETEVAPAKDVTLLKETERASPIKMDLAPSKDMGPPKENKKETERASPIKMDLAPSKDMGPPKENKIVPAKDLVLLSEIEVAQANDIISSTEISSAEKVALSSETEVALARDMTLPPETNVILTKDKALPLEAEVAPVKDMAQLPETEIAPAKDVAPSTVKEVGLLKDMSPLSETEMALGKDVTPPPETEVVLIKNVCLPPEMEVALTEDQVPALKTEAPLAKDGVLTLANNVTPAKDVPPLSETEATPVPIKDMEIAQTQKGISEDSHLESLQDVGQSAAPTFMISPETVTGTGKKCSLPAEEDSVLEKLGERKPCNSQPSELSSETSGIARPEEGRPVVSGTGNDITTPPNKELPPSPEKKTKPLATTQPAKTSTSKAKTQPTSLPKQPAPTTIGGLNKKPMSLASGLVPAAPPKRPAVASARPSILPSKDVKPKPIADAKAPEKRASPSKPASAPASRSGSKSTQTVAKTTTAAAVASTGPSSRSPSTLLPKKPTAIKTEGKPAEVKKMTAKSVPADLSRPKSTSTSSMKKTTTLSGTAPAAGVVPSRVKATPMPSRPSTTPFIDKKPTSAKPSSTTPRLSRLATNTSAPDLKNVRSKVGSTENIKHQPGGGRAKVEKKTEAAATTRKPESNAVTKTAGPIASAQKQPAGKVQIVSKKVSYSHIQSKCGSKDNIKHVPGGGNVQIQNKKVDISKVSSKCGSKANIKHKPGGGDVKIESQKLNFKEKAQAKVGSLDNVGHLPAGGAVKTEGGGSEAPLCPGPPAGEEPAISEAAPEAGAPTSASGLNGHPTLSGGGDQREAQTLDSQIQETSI", "details": "protein MAP4, U3A cells"}, "[30]": {"target": "proteins of U3A human fibrosarcoma cells (4462 proteins detected) (Homo sapiens, UniProt Q9H4A6)", "details": "protein GOLPH3; U3A cells"}}}
{"molecule": "CCc1nc(N)nc(N)c1-c1ccc(Cl)cc1", "note": "[pyrimethamine]", "values": [{"measurement": "Log2 (PYR/DMSO), RBCK1", "setting": "[1]", "result": -0.16}, {"measurement": "Log2 (PYR/DMSO)", "setting": "[2]", "result": -0.04}, {"measurement": "Log2 (PYR/DMSO)", "setting": "[3]", "result": -0.04}, {"measurement": "Log2 (PYR/DMSO)", "setting": "[4]", "result": 0.17}, {"measurement": "Log2 (PYR/DMSO)", "setting": "[5]", "result": 0.19}, {"measurement": "Log2 (PYR/DMSO)", "setting": "[6]", "result": 0.17}, {"measurement": "Log2 (PYR/DMSO)", "setting": "[7]", "result": 0.15}, {"measurement": "Log2 (PYR/DMSO)", "setting": "[8]", "result": 0.16}, {"measurement": "Log2 (PYR/DMSO)", "setting": "[9]", "result": 0.22}, {"measurement": "Log2 (PYR/DMSO)", "setting": "[10]", "result": -0.04}, {"measurement": "Log2 (PYR/DMSO)", "setting": "[11]", "result": -0.05}, {"measurement": "Log2 (PYR/DMSO)", "setting": "[12]", "result": -0.04}, {"measurement": "Log2 (PYR/DMSO)", "setting": "[13]", "result": 0.23}, {"measurement": "Log2 (PYR/DMSO)", "setting": "[14]", "result": 0.18}, {"measurement": "Log2 (PYR/DMSO)", "setting": "[15]", "result": -0.04}, {"measurement": "Log2 (PYR/DMSO)", "setting": "[16]", "result": -0.05}, {"measurement": "Log2 (PYR/DMSO)", "setting": "[17]", "result": -0.03}, {"measurement": "Log2 (PYR/DMSO)", "setting": "[18]", "result": 0.14}, {"measurement": "Log2 (PYR/DMSO)", "setting": "[19]", "result": 0.14}, {"measurement": "Log2 (PYR/DMSO)", "setting": "[20]", "result": -0.05}, {"measurement": "Log2 (PYR/DMSO)", "setting": "[21]", "result": 0.16}, {"measurement": "Log2 (PYR/DMSO)", "setting": "[22]", "result": -0.04}, {"measurement": "Log2 (PYR/DMSO)", "setting": "[23]", "result": 0.18}, {"measurement": "Log2 (PYR/DMSO)", "setting": "[24]", "result": 0.14}, {"measurement": "Log2 (PYR/DMSO)", "setting": "[25]", "result": 0.18}, {"measurement": "Log2 (PYR/DMSO)", "setting": "[26]", "result": 0.18}, {"measurement": "Log2 (PYR/DMSO)", "setting": "[27]", "result": 0.15}, {"measurement": "Log2 (PYR/DMSO)", "setting": "[28]", "result": 0.14}, {"measurement": "Log2 (PYR/DMSO)", "setting": "[29]", "result": -0.05}, {"measurement": "Log2 (PYR/DMSO)", "setting": "[30]", "result": 0.23}]}
